Read-outs that look alike come from different tables or passages of the source.
What was measured:
Format in all cases: cell-based
[1] = test system: LS411N cells; test: DHX9 cellular proliferation assay (CellTiter-Glo), LS411N (CRC-MSI); details: Homo sapiens, LS-411N, LS411N, performed at Pharmaron, read-out: LS411N (CRC-MSI-H) Antiproliferative IC50
[2] = test system: NCI-H747 cells; test: DHX9 cellular proliferation assay (CellTiter-Glo), NCI-H747 (CRC-MSS); details: Homo sapiens, performed at Pharmaron, read-out: H747 (CRC-MSS) Antiproliferative IC50
[3] = test system: circBRIP1 in HCT116 cells; test: DHX9 circBRIP1 cellular target engagement SYBR Green assay (qPCR); details: Homo sapiens, HCT-116, circBRIP1, HCT116 cells, read-out: DHX9 Cellular Target Engagement EC50

IC50 ([2]; NCI-H747, NCI-H747, CRC-MSS)	EC50 ([3]; SyBr assay (marked ^+))	IC50 ([2]; NCI-H747, NCI-H747)	EC50 ([3]; ^+ SyBr assay was used)	SMILES	IC50 ([1]; CRC-MSI-H)	IC50 [1]
> 10000 nM	63.1 nM			CS(=O)(=O)Nc1cc(Cl)cc(NC(=O)c2cnn(-c3ncccc3OCc3cccc(F)c3)c2)c1 [Example 65]	109 nM	
6470 nM	188 nM			CS(=O)(=O)Nc1cc(Br)cc(NC(=O)c2cnn(-c3ccccc3OCc3ccccc3)c2)c1 [Example 51]	259 nM	
> 10000 nM	53.3 nM			Cn1cc(C(=O)Nc2cc(Cl)cc(NS(C)(=O)=O)c2)cc1-c1ncccc1OCc1nccs1 [Example 279]	81.1 nM	
		> 10000 nM	137 nM	CS(=O)(=O)Nc1cc(Cl)cc(NC(=O)c2cnn(-c3c(F)cccc3OCc3cncc(F)c3)c2)c1 [Example 718]		114 nM
8380 nM	73.3 nM			CS(=O)(=O)Nc1cc(Cl)cc(NC(=O)c2cc(-c3ncccc3OCc3cccnc3)n(CC(F)(F)F)c2)c1 [Example 185]	139 nM	
		3560 nM	62.1 nM	Cn1cc(C(=O)Nc2cc(Cl)cc(NS(C)(=O)=O)c2)cc1-c1ncc(C(F)(F)F)cn1 [Example 571]		159 nM

Second part, the molecule before the results:

SMILES	IC50 ([2]; NCI-H747, NCI-H747, CRC-MSS)	EC50 ([3]; SyBr assay (marked ^+))	IC50 ([2]; NCI-H747, NCI-H747)	EC50 ([3]; ^+ SyBr assay was used)	IC50 ([1]; CRC-MSI-H)	IC50 [1]
Cc1cccc(O)c1-c1csc(C(=O)Nc2cc(Br)cc(NS(C)(=O)=O)c2)c1 [Example 19]	> 10000 nM	2110 nM			1080 nM	
CCOc1ccc(-n2cc(C(=O)Nc3cc(Cl)cc(NS(C)(=O)=O)c3)cc2C)nc1 [Example 437]			> 10000 nM	46.8 nM		123 nM
CS(=O)(=O)Nc1cc(Br)cc(NC(=O)c2cc(-c3cnccn3)cs2)c1 [Example 18]	> 10000 nM	98.4 nM			546 nM	
Cn1cc(C(=O)Nc2cc(Cl)cc(NS(C)(=O)=O)c2)cc1-c1ccc(N2CC(F)(F)C2)cn1 [Example 595, N-(3-chloro-5-methanesulfonamidophenyl)-5-[5-(3,3-difluoroazetidin-1-yl)pyridin-2-yl]-1-methyl-1H-pyrrole-3-carboxamide]			7400 nM	35.2 nM		167 nM
CS(=O)(=O)Nc1cc(Cl)cc(NC(=O)c2cc(-c3ccccc3)c(CO)s2)c1 [Example 120, N-(3-chloro-5-(methylsulfonamido)phenyl)-5-(hydroxymethyl)-4-phenylthiophene-2-carboxamide]	6980 nM	144 nM			1070 nM	
Cc1cc(C(=O)Nc2cc(Cl)cc(NS(C)(=O)=O)c2)cn1-c1ccc(Cl)cn1 [Example 389]	8040 nM	110 nM			113 nM	
CCS(=O)(=O)Nc1cc(Cl)cc(NC(=O)c2cc(-c3ncccc3C)cs2)c1 [Example 224]	> 10000 nM	55.8 nM			122 nM	
CS(=O)(=O)Nc1cc(Cl)cc(NC(=O)c2cc(-c3ccccn3)c(CO)s2)c1 [Example 163, N-(3-chloro-5-(methylsulfonamido)phenyl)-5-(hydroxymethyl)-4-(pyridin-2-yl)thiophene-2-carboxamide]	> 10000 nM	70 nM			609 nM	
COc1cnc(-n2cc(C(=O)Nc3cc(Cl)cc(NS(C)(=O)=O)c3)cc2C)nc1 [Example 441]			> 10000 nM	123 nM		130 nM
Cc1cccnc1-c1nc(C(=O)Nc2cc(Br)cc(NS(C)(=O)=O)c2)cn1C [Example 96, N-(3-bromo-5-(methylsulfonamido)phenyl)-1-methyl-2-(3-methylpyridin-2-yl)-1H-imidazole-4-carboxamide]	> 10000 nM	9630 nM			> 10000 nM	
Cc1sc(C(=O)Nc2cc(Cl)cc(NS(C)(=O)=O)c2)cc1-c1ncc(OC(F)F)cn1 [Example 345]	8450 nM	108 nM			362 nM	
Cc1sc(C(=O)Nc2cc(Cl)cc(NS(C)(=O)=O)c2)cc1-c1ncc(F)cn1 [Example 336]	> 10000 nM	84.6 nM			146 nM	
Cc1cc(C(=O)Nc2cc(Cl)cc(NS(C)(=O)=O)c2)cn1-c1ccc(N2CCN(C)C(=O)C2)cn1 [Example 94]	> 10000 nM	292 nM			3200 nM	

Reference: patent publication US12162867B2, “Inhibitors of RNA helicase DHX9 and uses thereof” (ACCENT THERAPEUTICS, INC., priority 2022, dated 2024)
